The source of these data is US6949542B2, “Dihydro-benzo[b][1,4]diazepin-2-one derivatives” (Hoffman-La Roche Inc., priority 2002, dated 2005).

The target of one data set is T1, rat mGlu2 receptor (Rattus norvegicus, UniProt P31421).
T1 construct: expressed in transfected cells; vector pcD1mGR2
Put plainly: [3H]-LY354740 binding on mGlu2 transfected CHO cell membranes.

The mark [1] stands for this setting: inhibition of 10 nM [3H]-LY354740 binding, mGlu2 transfected CHO cell membranes, room temperature, 1 hour, read-out: Ki mGlu2.

Like-named read-outs stand apart in the source and are kept apart here.

T1 sequence (P31421 19-872): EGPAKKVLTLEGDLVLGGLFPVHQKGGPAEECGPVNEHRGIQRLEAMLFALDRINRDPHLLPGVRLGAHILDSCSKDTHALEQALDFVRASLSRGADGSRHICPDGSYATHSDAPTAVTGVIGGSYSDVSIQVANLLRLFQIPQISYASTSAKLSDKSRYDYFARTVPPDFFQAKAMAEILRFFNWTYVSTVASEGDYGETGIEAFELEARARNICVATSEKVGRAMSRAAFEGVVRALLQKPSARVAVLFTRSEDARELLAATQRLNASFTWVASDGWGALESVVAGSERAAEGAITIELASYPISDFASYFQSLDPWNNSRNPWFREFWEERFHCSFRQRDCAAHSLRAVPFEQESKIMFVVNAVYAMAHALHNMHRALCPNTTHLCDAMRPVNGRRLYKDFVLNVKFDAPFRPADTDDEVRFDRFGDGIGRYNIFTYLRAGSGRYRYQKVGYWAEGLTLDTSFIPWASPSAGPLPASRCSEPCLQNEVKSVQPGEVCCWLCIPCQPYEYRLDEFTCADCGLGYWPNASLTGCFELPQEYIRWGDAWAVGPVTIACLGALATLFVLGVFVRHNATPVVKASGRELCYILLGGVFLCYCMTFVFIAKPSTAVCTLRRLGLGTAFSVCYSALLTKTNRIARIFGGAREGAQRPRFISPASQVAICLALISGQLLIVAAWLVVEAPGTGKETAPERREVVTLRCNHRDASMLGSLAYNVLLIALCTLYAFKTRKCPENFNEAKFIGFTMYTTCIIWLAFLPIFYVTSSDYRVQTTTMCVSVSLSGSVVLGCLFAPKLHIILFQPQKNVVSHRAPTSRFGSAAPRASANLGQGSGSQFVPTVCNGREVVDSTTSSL
Method for rat mGlu2 receptor: [^3H]-LY354740 Binding on mGlu2 Transfected CHO Cell Membranes
Transfection and Cell Culture
The cells were maintained in Dulbecco's Modified Eagle medium with reduced L-glutamine (2 mM final concentration) and 10% dialysed foetal calf serum from Gibco BRL (Basel, Switzerland).
Cells, cultured as above, were harvested and washed three times with cold PBS and frozen at −80° C. The pellet was resuspended in cold 20 mM HEPES-NaOH buffer containing 10 mM EDTA (pH 7.4), and homogenised with a polytron (Kinematica, AG, Littau, Switzerland) for 10 s at 10 000 rpm. After centrifugation for 30 min. at 4° C., the pellet was washed once with the same buffer, and once with cold 20 mM HEPES-NaOH buffer containing 0.1 mM EDTA, (pH 7.4). Protein content was measured using the Pierce method (Socochim, Lausanne, Switzerland) using bovine serum albumin as standard.
After thawing, the membranes were resuspended in cold 50 mM Tris-HCl buffer containing 2 mM MgCl2 and 2 mM CaCl2, (pH 7) (binding buffer). The final concentration of the membranes in the assays was 25 μg protein/ml. Inhibition experiments were performed with membranes incubated with 10 nM [^3H]-LY354740 at room temperature, for 1 hour, in presence of various concentrations of the compound to be tested. Following the incubations, membranes were filtered onto Whatmann GF/C glass fiber filters and washed 5 times with cold binding buffer. Non specific binding was measured in the presence of 10 μM DCG IV. After transfer of the filters into plastic vials containing 10 ml of Ultima-gold scintillation fluid (Packard, Zürich, Switzerland), the radioactivity was measured by liquid scintillation in a Tri-Carb 2500 TR counter (Packard, Zürich, Switzerland).
The inhibition curves were fitted with a four parameter logistic equation giving IC50 values, and Hill coefficients.

In the case of `O=C1CC(c2cccc(-c3ccncc3)c2)=Nc2cc(Cl)c(Cl)cc2N1` [Example 2, 7,8-Dichloro-4-(3-pyridin-4-yl-phenyl)-1,3-dihydro-benzo[b][1,4]diazepin-2-one], the melting point was determined as 240 °C. For the same compound, the Ki at rat mGlu2 receptor (setting [1]) came to 3.4 nM.
With `O=C1CC(c2cccc(-c3ccccn3)c2)=Nc2cc(Cl)c(Cl)cc2N1` [Example 5, 7,8-Dichloro-4-(3-pyridin-2-yl-phenyl)-1,3-dihydro-benzo[b][1,4]diazepin-2-one], the melting point was 239 °C. Moreover, the inhibitory constant (Ki) at rat mGlu2 receptor (setting [1]) came to 23.5 nM.
For `Cc1ccc(-c2cccc(C3=Nc4ccc(C(F)(F)F)cc4NC(=O)C3)c2)cn1` [Example 9, 4-[3-(6-Methyl-pyridin-3-yl)-phenyl]-8-trifluoromethyl-1,3-dihydro-benzo[b][1,4]diazepin-2-one] the same measures were 215 to 218 °C and 5.5 nM.
As for `Cc1ccc(-c2cccc(C3=Nc4ccc(-c5ccccc5F)cc4NC(=O)C3)c2)cn1` [Example 12, 8-(2-Fluoro-phenyl)-4-[3-(6-methyl-pyridin-3-yl)-phenyl]-1,3-dihydro-benzo[b][1,4]diazepin-2-one], the melting point was 206 to 209 °C. On rat mGlu2 receptor (setting [1]), the Ki turned out to be 3.9 nM.
As to `Cc1ncccc1-c1cccc(C2=Nc3cc(N(C)C)c(C(F)(F)F)cc3NC(=O)C2)c1` [Example 13, 7-Dimethylamino-4-[3-(2-methyl-pyridin-3-yl)-phenyl]-8-trifluoromethyl-1,3-dihydro-benzo[b][1,4]diazepin-2-one], the melting point was 229 to 230 °C. Further, the Ki at rat mGlu2 receptor (setting [1]) amounted to 6 nM.
For `Cc1ccc(-c2cccc(C3=Nc4ccc(-c5ccccc5F)cc4NC(=O)C3)c2)nn1` [Example 16, 8-(2-Fluoro-phenyl)-4-[3-(6-methyl-pyridazin-3-yl)-phenyl]-1,3-dihydro-benzo[b][1,4]diazepin-2-one], the melting point came out at 225 °C. At rat mGlu2 receptor (setting [1]), the inhibition constant (Ki) amounted to 16.5 nM.
For `Cc1cc2c(cc1C(F)(F)F)N=C(c1cccc(-c3cccnc3)c1)CC(=O)N2` [Example 25, 8-Methyl-4-(3-pyridin-3-yl-phenyl)-7-trifluoromethyl-1,3-dihydro-benzo[b][1,4]diazepin-2-one] the same measures were 221 °C and 2.8 nM.
Turning to `O=C1CC(c2cccc(-c3cccnc3)c2)=Nc2ccc(Cl)cc2N1` [Example 28, 8-Chloro-4-(3-pyridin-3-yl-phenyl)-1,3-dihydro-benzo[b][1,4]diazepin-2-one], the melting point came out at 232 °C. Further, the Ki on rat mGlu2 receptor (setting [1]) is 2 nM.
As to `O=C1CC(c2cccc(-c3ccncc3)c2)=Nc2cc(OCC(F)(F)F)c(C(F)(F)F)cc2N1` [Example 37, 4-(3-Pyridin-4-yl-phenyl)-7-(2,2,2-trifluoro-ethoxy)-8-trifluoromethyl-1,3-dihydro-benzo[b][1,4]diazepin-2-one], the melting point was 221 to 222 °C (dec.). For the same compound, the Ki on rat mGlu2 receptor (setting [1]) was 1.55 nM.
Compound `COc1ccc(-c2cccc(C3=Nc4ccc(-c5ccccc5F)cc4NC(=O)C3)c2)nn1` [Example 41, 8-(2-Fluoro-phenyl)-4-[3-(6-methoxy-pyridazin-3-yl)-phenyl]-1,3-dihydro-benzo[b][1,4]diazepin-2-one] showed a melting point of 220 °C. Besides, the Ki at rat mGlu2 receptor (setting [1]) was found to be 24.5 nM.
Take `COc1cc2c(cc1C(F)(F)F)NC(=O)CC(c1cccc(-c3ccccn3)c1)=N2` [Example 42, 7-Methoxy-4-(3-pyridin-2-yl-phenyl)-8-trifluoromethyl-1,3-dihydro-benzo[b][1,4]diazepin-2-one]: the melting point was 240 °C. For the same compound, the inhibitory constant (Ki) on rat mGlu2 receptor (setting [1]) came out at 27 nM.
For `Cc1ccc(-c2cccc(C3=Nc4cc(N(C)C)c(C(F)(F)F)cc4NC(=O)C3)c2)c(C)n1` [Example 47, 7-Dimethylamino-4-[3-(2,6-dimethyl-pyridin-3-yl)-phenyl]-8-trifluoromethyl-1,3-dihydro-benzo[b][1,4]diazepin-2-one] the same measures were 187 to 189 °C and 22.5 nM.
For `Cc1cc2c(cc1Cl)NC(=O)CC(c1cccc(-c3ccnnc3)c1)=N2` [Example 48, 8-Chloro-7-methyl-4-(3-pyridazin-4-yl-phenyl)-1,3-dihydro-benzo[b][1,4]diazepin-2-one] the same measures were 240 °C (dec.) and 9.35 nM.
For `CC(C)CNc1cc2c(cc1C(F)(F)F)NC(=O)CC(c1cccc(-c3ccncc3)c1)=N2` [Example 63, 7-Isobutylamino-4-(3-pyridin-4-yl-phenyl)-8-trifluoromethyl-1,3-dihydro-benzo[b][1,4]diazepin-2-one] the same measures were 198 °C and 19 nM.
In turn, `Cc1cc(-c2cccc(C3=Nc4cc(N(C)C)c(C(F)(F)F)cc4NC(=O)C3)c2)ccn1` [Example 78, 7-Dimethylamino-4-[3-(2-methyl-pyridin-4-yl)-phenyl]-8-trifluoromethyl-1,3-dihydro benzo[b][1,4]diazepin-2-one] registered a melting point of 225 °C. For the same compound, the Ki at rat mGlu2 receptor (setting [1]) came to 1.29 nM.
`CCCN(C)c1cc2c(cc1C(F)(F)F)NC(=O)CC(c1cccc(-c3ccnc(C)c3)c1)=N2` [Example 80, 7-(Methyl-propyl-amino)-4-[3-(2-methyl-pyridin-4-yl)-phenyl]-8-trifluoromethyl-1,3-dihydro benzo[b][1,4]diazepin-2-one]: the melting point was determined as 192 °C. Further, the inhibitory constant (Ki) at rat mGlu2 receptor (setting [1]) turned out to be 5.5 nM.
On to `Cc1cc2c(cc1C(F)(F)F)NC(=O)CC(c1cccc(-c3cnccn3)c1)=N2` [Example 87, 7-Methyl-4-(3-pyrazin-2-yl-phenyl)-8-trifluoromethyl-1,3-dihydro-benzo[b][1,4]diazepin-2-one], for which the melting point was found to be 237 °C. For the same compound, the Ki on rat mGlu2 receptor (setting [1]) came out at 10 nM.
In the case of `O=C1CC(c2cccc(-c3cncnc3)c2)=Nc2cc(Cl)c(Cl)cc2N1` [Example 97, 7,8-Dichloro-4-(3-pyrimidin-5-yl-phenyl)-1,3-dihydro-benzo[b][1,4]diazepin-2-one], the melting point was 272 °C. Further, the affinity at rat mGlu2 receptor, expressed as Ki, was 10.7 nM.
The compound `Cc1cc2c(cc1Cl)NC(=O)CC(c1cccc(-c3cncnc3)c1)=N2` [Example 104, 8-Chloro-7-methyl-4-(3-pyrimidin-5-yl-phenyl)-1,3-dihydro-benzo[b][1,4]diazepin-2-one] came in with a melting point of 248 °C. Further, the inhibition constant Ki on rat mGlu2 receptor (setting [1]) came to 8 nM.
Consider `O=C1CC(c2cccc(-c3cncnc3)c2)=Nc2ccc(-c3ccccc3F)cc2N1` [Example 105, 8-(2-Fluoro-phenyl)-4-(3-pyrimidin-5-yl-phenyl)-1,3-dihydro-benzo[b][1,4]diazepin-2-one], for which the melting point worked out at 223 °C. Further, at rat mGlu2 receptor (setting [1]), the Ki is 6.2 nM.
The compound `O=C1CC(c2cccc(-c3cnccn3)c2)=Nc2ccc(-n3cccc3)cc2N1` [Example 109, 4-(3-Pyrazin-2-yl-phenyl)-8-pyrrol-1-yl-1,3-dihydro-benzo[b][1,4]diazepin-2-one] yielded a melting point of 214 °C. The Ki at rat mGlu2 receptor (setting [1]) turned out to be 5.5 nM.
With `Cc1cncc(-c2cccc(C3=Nc4cc(C)c(C(F)(F)F)cc4NC(=O)C3)c2)n1` [Example 129, 7-Methyl-4-[3-(6-methyl-pyrazin-2-yl)-phenyl]-8-trifluoromethyl-1,3-dihydro-benzo[b][1,4]diazepin-2-one], the melting point is 233 °C. The Ki on rat mGlu2 receptor (setting [1]) was 3.1 nM.
`Cc1cc(-c2cccc(C3=Nc4cc(OCC(F)(F)F)c(C(F)(F)F)cc4NC(=O)C3)c2)c(C)cn1` [Example 138, 4-[3-(2,5-Dimethyl-pyridin-4-yl)-phenyl]-7-(2,2,2-trifluoro-ethoxy)-8-trifluoromethyl-1,3-dihydro-benzo[b][1,4]diazepin-2-one] registered a melting point of 202 °C. In addition, the inhibition constant (Ki) at rat mGlu2 receptor (setting [1]) was found to be 3.6 nM.
`CCc1cnc(C)cc1-c1cccc(C2=Nc3cc(C)c(Cl)cc3NC(=O)C2)c1` [Example 147, 8-Chloro-4-[3-(5-ethyl-2-methyl-pyridin-4-yl)-phenyl]-7-methyl-1,3-dihydro-benzo[b][1,4]diazepin-2-one] had a melting point of 195 °C. Moreover, the inhibition constant Ki at rat mGlu2 receptor (setting [1]) amounted to 4.5 nM.
Regarding `Cc1cccc(-c2cccc(C3=Nc4cc(N(C)C)c(C(F)(F)F)cc4NC(=O)C3)c2)n1` [Example 160, 7-Dimethylamino-4-[3-(6-methyl-pyridin-2-yl)-phenyl]-8-trifluoromethyl-1,3-dihydro-benzo[b][1,4]diazepin-2-one], the melting point turned out to be 195 °C. Also, the Ki at rat mGlu2 receptor (setting [1]) is 18.8 nM.
Take `O=C1CC(c2cccc(-c3cccnc3)c2)=Nc2ccc(OCC(F)(F)F)cc2N1` [Example 197, 4-(3-Pyridin-3-yl-phenyl)-8-(2,2,2-trifluoro-ethoxy)-1,3-dihydro-benzo[b][1,4]diazepin-2-one]: the melting point is 156 °C. Also, the inhibition constant Ki on rat mGlu2 receptor (setting [1]) was determined as 10 nM.
For `N#Cc1cc(-c2cccc(C3=Nc4ccc(C(F)(F)F)cc4NC(=O)C3)c2)ccn1` [Example 198, 4-[3-(4-Oxo-7-trifluoromethyl-4,5-dihydro-3H-benzo[b][1,4]diazepin-2-yl)-phenyl]-pyridine-2-carbonitrile] the same measures were 239 to 240 °C and 23.7 nM.
`COCCOc1cc2c(cc1C(F)(F)F)NC(=O)CC(c1cccc(-c3ccnc(C#N)c3)c1)=N2` [Example 209, 4-{3-[8-(2-Methoxy-ethoxy)-4-oxo-7-trifluoromethyl-4,5-dihydro-3H-benzo[b][1,4]diazepin-2-yl]-phenyl}-pyridine-2-carbonitrile] had a melting point of 212 to 213 °C. Also, the inhibition constant Ki on rat mGlu2 receptor (setting [1]) stood at 12.8 nM.
For `Cc1cc(C2CC2)ncc1-c1cccc(C2=Nc3cc(C)c(C(F)(F)F)cc3NC(=O)C2)c1` [Example 246, 4-[3-(6-Cyclopropyl-4-methyl-pyridin-3-yl)-phenyl]-7-methyl-8-trifluoromethyl-1,3-dihydro-benzo[b][1,4]diazepin-2-one] the same measures were 195 °C and 16.9 nM.
In the case of `Cc1cc2c(cc1C(F)(F)F)NC(=O)CC(c1ccnc(-c3cccnc3)c1)=N2` [Example 290, 4-[2,3′]Bipyridinyl-4-yl-7-methyl-8-trifluoromethyl-1,3-dihydro-benzo[b][1,4]diazepin-2-one], the inhibitory constant (Ki) on rat mGlu2 receptor (setting [1]) turned out to be 5 nM.
